{"source": "ChEMBL document CHEMBL5131375", "about": "“Recent Developments in the Use of Kinase Inhibitors for Management of Viral Infections” (J Med Chem, 2022)", "key": {"[1]": {"tested_on": "Chikungunya virus", "experiment": "microbe, parasite or virus in culture", "assay_type": "functional, organism-based"}, "[2]": {"experiment": "in vitro", "conditions": "human, Huh-7 cells"}, "[3]": {"experiment": "in vitro", "conditions": "human"}, "[4]": {"tested_on": "SARS-CoV-2", "experiment": "microbe, parasite or virus in culture", "assay_type": "functional, organism-based, Vero E6", "conditions": "Severe acute respiratory syndrome coronavirus 2, Vero C1008"}, "[5]": {"tested_on": "SARS-CoV-2", "experiment": "microbe, parasite or virus in culture", "assay_type": "functional, organism-based", "conditions": "Severe acute respiratory syndrome coronavirus 2, Huh-7"}, "[6]": {"experiment": "Cytotoxicity against human A549 cells", "assay_type": "toxicity, cell-based"}, "[7]": {"tested_on": "Dengue virus", "experiment": "microbe, parasite or virus in culture"}, "[8]": {"tested_on": "Human betaherpesvirus 5", "experiment": "microbe, parasite or virus in culture", "assay_type": "functional, organism-based"}, "[9]": {"tested_on": "Human betaherpesvirus 5", "experiment": "Antiviral activity against HCMV Merlin (RCMV 1111) infected in HFF cells incubated for 96 hrs", "assay_type": "functional, organism-based", "conditions": "Human betaherpesvirus 5, Merlin (RCMV 1111)"}, "[10]": {"tested_on": "Human betaherpesvirus 5", "experiment": "Antiviral activity against HCMV AD169 infected in HFF cells incubated for 96 hrs", "assay_type": "functional, organism-based", "conditions": "Human betaherpesvirus 5, AD169, HFF"}, "[11]": {"tested_on": "Influenza A virus", "experiment": "Antiviral actiivty against Influenza A (A/Regensburg/D6/2009 (H1N1)) infected in human A549 cells", "assay_type": "functional, organism-based"}, "[12]": {"tested_on": "SARS-CoV-2", "experiment": "microbe, parasite or virus in culture", "assay_type": "functional, organism-based", "conditions": "Severe acute respiratory syndrome coronavirus 2"}, "[13]": {"experiment": "in vitro", "conditions": "chlorocebus sabaeus, vero c1008"}, "[14]": {"tested_on": "Influenza A virus", "experiment": "microbe, parasite or virus in culture", "assay_type": "functional, organism-based", "conditions": "H3N2"}, "[15]": {"tested_on": "Junin virus", "experiment": "microbe, parasite or virus in culture", "assay_type": "functional, organism-based", "conditions": "Mammarenavirus juninense"}, "[16]": {"experiment": "in vitro", "conditions": "chlorocebus sabaeus, Vero cells"}, "[17]": {"experiment": "in vitro", "conditions": "dog, MDCK cells"}, "[18]": {"tested_on": "Influenza A virus", "experiment": "microbe, parasite or virus in culture", "assay_type": "functional, organism-based"}, "[19]": {"tested_on": "Human alphaherpesvirus 1", "experiment": "Antiviral activity against HSV-1 at 10 uM relative to control", "assay_type": "functional"}, "[20]": {"tested_on": "Hepatitis C virus", "experiment": "microbe, parasite or virus in culture"}, "[21]": {"tested_on": "Influenza A virus", "experiment": "microbe, parasite or virus in culture", "assay_type": "functional, organism-based", "conditions": "H1N1pdm09"}, "[22]": {"experiment": "Volume of distribution at steady state in cynomolgus monkey plasma at 3 mg/kg, iv at […] LC-MS/MS analysis", "assay_type": "ADME, organism-based, Macaca fascicularis", "conditions": "time 0.083 hrs, read-out: Vdss"}, "[23]": {"experiment": "Volume of distribution at steady state in CD-1 mouse plasma at 10 mg/kg, iv at […] LC-MS/MS analysis", "assay_type": "ADME, organism-based", "conditions": "time 0.083 hrs, read-out: Vdss"}, "[24]": {"experiment": "Volume of distribution at steady state in Han-Wistar rat plasma at 5 mg/kg, iv at […] LC-MS/MS analysis", "assay_type": "ADME, organism-based", "conditions": "time 0.083 hrs, read-out: Vdss"}, "[25]": {"experiment": "Volume of distribution at steady state in Beagle dog plasma at 1 mg/kg, iv at […] LC-MS/MS analysis", "assay_type": "ADME, organism-based, Canis lupus familiaris", "conditions": "time 0.083 hrs, read-out: Vdss"}, "[26]": {"tested_on": "Vero C1008", "experiment": "Cytotoxicity against African green monkey Vero E6 cells at 250 nM", "assay_type": "toxicity, cell-based", "conditions": "chlorocebus sabaeus, vero c1008, 0.25 µM"}, "[27]": {"tested_on": "Human alphaherpesvirus 1", "experiment": "Antiviral activity against HSV-1 in HFL1 cells incubated for 24 hrs", "assay_type": "functional, organism-based", "conditions": "Human alphaherpesvirus 1, HFL1, 24 h"}, "[28]": {"experiment": "Cytotoxicity against HFL1 cells", "assay_type": "toxicity, cell-based", "conditions": "human"}, "[29]": {"tested_on": "Human alphaherpesvirus 1", "experiment": "microbe, parasite or virus in culture", "assay_type": "functional, organism-based"}, "[30]": {"tested_on": "Hepatitis C virus", "experiment": "Antiviral activity against HCV GT1b-genotype assessed as inhibition of viral replication", "assay_type": "functional, organism-based, Hepacivirus hominis"}, "[31]": {"tested_on": "SARS-CoV-2", "experiment": "microbe, parasite or virus in culture", "assay_type": "functional, organism-based", "conditions": "Severe acute respiratory syndrome coronavirus 2", "remark": "listed apart in the source"}, "[32]": {"experiment": "Cytotoxicity against golden hamster BSR cells", "assay_type": "toxicity, cell-based, Mesocricetus auratus"}, "[33]": {"tested_on": "Lyssavirus rabies", "experiment": "microbe, parasite or virus in culture", "assay_type": "functional, organism-based"}}, "data": [{"smiles": "CC(C)c1ccc(NC(=O)c2csc(C(O)C(C)C)n2)cc1", "note": "(stereo not given)", "values": [{"measurement": "EC50", "setting": "[1]", "value": 2200, "unit": "nM"}, {"measurement": "CC50", "setting": "[2]", "value": "> 50", "unit": "µM"}]}, {"smiles": "COc1ccc(-c2cnc3c(OC(C)C)snc3c2)cc1OC", "values": [{"measurement": "CC50", "setting": "[3]; huh7.5.1", "value": "> 10", "unit": "µM"}]}, {"smiles": "Cc1cc(Nc2cc3ncccc3c(N[C@@H]3C[C@H]4CC[C@@H](C3)N4CCC#N)n2)n[nH]1", "note": "[IZENCITINIB]", "values": [{"measurement": "EC50", "setting": "[4]", "value": 20, "unit": "nM"}, {"measurement": "IC50", "setting": "[5]", "value": 20, "unit": "nM"}]}, {"smiles": "CCc1cnn2c(NCc3ccc[n+]([O-])c3)cc(N3CCCC[C@H]3CCO)nc12", "note": "[DINACICLIB]", "values": [{"measurement": "CC50", "setting": "[6]", "value": "> 100", "unit": "µM"}]}, {"smiles": "COc1ccc(-c2cnc3[nH]cc(C#Cc4cccnc4)c3c2)cc1OC", "values": [{"measurement": "EC50", "setting": "[7]", "value": 43, "unit": "nM"}, {"measurement": "CC50", "setting": "[3]; Huh-7.5.1 cells", "value": 17, "unit": "µM"}]}, {"smiles": "COc1cc[nH]c1/C=C1\\C(=O)Nc2ccc([N+](=O)[O-])c(N3CC[C@@H](O)C3)c21", "values": [{"measurement": "EC50", "setting": "[8]", "value": 10, "unit": "nM"}, {"measurement": "EC50", "setting": "[9]", "value": 1300, "unit": "nM"}, {"measurement": "EC50", "setting": "[10]", "value": 10, "unit": "nM"}]}, {"smiles": "O=C(NOCC1CC1)c1ccc(F)c(F)c1Nc1ccc(I)cc1Cl", "note": "[CI-1040]", "values": [{"measurement": "EC50", "setting": "[11]", "value": 26, "unit": "nM"}, {"measurement": "CC50", "setting": "[6]", "value": 312, "unit": "µM"}]}, {"smiles": "CCc1nc(C(N)=O)c(Nc2ccc(N3CCC(N4CCN(C)CC4)CC3)c(OC)c2)nc1NC1CCOCC1", "note": "[GILTERITINIB]", "values": [{"measurement": "EC50", "setting": "[12]", "value": 225, "unit": "nM"}, {"measurement": "IC50", "setting": "[5]", "value": 225, "unit": "nM"}, {"measurement": "CC50", "setting": "[13]", "value": "> 500", "unit": "nM"}]}, {"smiles": "CNC(=O)c1cc(Oc2ccc(NC(=O)Nc3ccc(Cl)c(C(F)(F)F)c3)c(F)c2)ccn1", "note": "[REGORAFENIB]", "values": [{"measurement": "CC50", "setting": "[6]", "value": 14.2, "unit": "µM"}, {"measurement": "EC50", "setting": "[14]", "value": 890, "unit": "nM"}]}, {"smiles": "C/C(O)=C(/C#N)C(=O)Nc1ccc(C(F)(F)F)cc1", "values": [{"measurement": "EC50", "setting": "[15]", "value": 16, "unit": "µM"}, {"measurement": "CC50", "setting": "[6]", "value": "> 100", "unit": "µM"}, {"measurement": "CC50", "setting": "[16]", "value": 223, "unit": "µM"}]}, {"smiles": "CCS(=O)(=O)Nc1ccc2c(c1)/C(=C(/Nc1ccc(CN3CCCCC3)cc1)c1ccccc1)C(=O)N2", "note": "[HESPERADIN]", "values": [{"measurement": "CC50", "setting": "[17]", "value": 21.3, "unit": "µM"}, {"measurement": "EC50", "setting": "[18]", "value": 280, "unit": "nM"}]}, {"smiles": "O=C(Nc1c[nH]nc1-c1nc2ccc(CN3CCOCC3)cc2[nH]1)NC1CC1", "note": "[AT-9283]", "values": [{"measurement": "Activity", "setting": "[19]", "value": 70, "unit": "%"}]}, {"smiles": "COc1cc(-c2cnc3c(N4CCOCC4)snc3c2)cc(OC)c1OC", "values": [{"measurement": "CC50", "setting": "[3]; Huh-7.5.1 cells", "value": 23.2, "unit": "µM"}, {"measurement": "EC50", "setting": "[20]", "value": 2500, "unit": "nM"}]}, {"smiles": "Cc1cc(C(=O)NOCCO)c(Nc2ccc(I)cc2F)n(C)c1=O", "note": "[AZD-8330]", "values": [{"measurement": "IC50", "setting": "[21]", "value": 40, "unit": "nM"}, {"measurement": "CC50", "setting": "[6]", "value": "> 100", "unit": "µM"}]}, {"smiles": "Cc1cn(-c2cc(NC(=O)c3ccc(C)c(Nc4nccc(-c5cccnc5)n4)c3)cc(C(F)(F)F)c2)cn1", "note": "[NILOTINIB]", "values": [{"measurement": "Vd at […]", "setting": "[22]", "value": 0.55, "unit": "L/kg"}, {"measurement": "Vd at […]", "setting": "[23]", "value": 0.55, "unit": "L/kg"}, {"measurement": "Vd at […]", "setting": "[24]", "value": 0.55, "unit": "L/kg"}, {"measurement": "EC50", "setting": "[12]", "value": 80, "unit": "nM"}, {"measurement": "Vd at […]", "setting": "[25]", "value": 0.55, "unit": "L/kg"}, {"measurement": "Activity", "setting": "[26]", "value": "Non-Toxic"}]}, {"smiles": "CC1Oc2ccc(NC(=O)[C@@H](Cc3c[nH]c4ccccc34)NC(=O)c3ccc(F)cc3)cc2NC1=O", "note": "(stereo not given in full)", "values": [{"measurement": "IC50", "setting": "[27]", "value": 29, "unit": "µM"}, {"measurement": "CC50", "setting": "[28]", "value": 1.41, "unit": "mM"}, {"measurement": "EC50", "setting": "[29]", "value": 29, "unit": "µM"}]}, {"smiles": "CC(C)S(=O)(=O)n1c(N)nc2ccc(/C(=N/O)c3ccccc3)cc21", "note": "[ENVIROXIME]", "values": [{"measurement": "EC50", "setting": "[30]", "value": 100, "unit": "nM"}, {"measurement": "CC50", "setting": "[2]", "value": 25, "unit": "µM"}, {"measurement": "EC50", "setting": "[20]", "value": 200, "unit": "nM"}]}, {"smiles": "CNCc1ccc(-c2cc(-c3nc(-c4ccc(S(=O)(=O)C(C)C)cc4)cnc3N)on2)cc1", "note": "[BERZOSERTIB]", "values": [{"measurement": "IC50", "setting": "[12]", "value": 4.28, "unit": "nM"}, {"measurement": "Activity", "setting": "[26]", "value": "Non-Toxic"}, {"measurement": "IC50", "setting": "[31]", "value": 4.28, "unit": "nM"}]}, {"smiles": "CC(=O)c1c(O)c(C)c(O)c(Cc2c(O)c3c(c(C(=O)/C=C/c4ccccc4)c2O)OC(C)(C)C=C3)c1O", "note": "[ROTTLERIN]", "values": [{"measurement": "CC50", "setting": "[32]", "value": 100, "unit": "µM"}, {"measurement": "EC50", "setting": "[33]", "value": 1000, "unit": "nM"}]}]}
